{
  "source": "patent US5985868A",
  "about": "“Methods and compositions for treating androgen-dependant diseases using optically pure R-(-) casodex” (Sepracor Inc., priority 1998, dated 1999)",
  "origin": "cited, not measured here",
  "key": {"[1]": {"conditions": "estimated from oral studies"}, "[2]": {"tested_on": "peripheral androgen receptors"}, "[3]": {"tested_on": "serum testosterone, estradiol and LH", "conditions": "observed at all doses (10-50 mg p.o. per day)"}, "[4]": {"tested_on": "prostatic acid phosphatase", "conditions": "human volunteers, 10-50 mg p.o. per day"}, "[5]": {"conditions": "racemic casodex at 30 or 50 mg"}, "[6]": {"conditions": "control of morning sickness during pregnancy"}, "[7]": {"conditions": "in vivo"}, "beta-adrenergic": {"tested_on": "beta-adrenergic", "conditions": "L-form versus D-enantiomer"}, "androgen": {"tested_on": "androgen", "conditions": "in vivo"}, "progesterone receptors": {"tested_on": "progesterone receptors", "conditions": "at 5 nm"}, "glucocorticoid receptors": {"tested_on": "glucocorticoid receptors", "conditions": "at 5 nm"}},
  "data": [
    {"smiles": "CC(O)(CS(=O)(=O)c1ccc(F)cc1)C(=O)Nc1ccc(C#N)c(C(F)(F)F)c1", "note": "(racemic) [racemic casodex, 4'-cyano-3-[(4-fluorophenyl)sulfonyl]-2-hydroxy-2-methyl-3'-(trifluoromethyl)propionanilide]", "values": [
      {"measurement": "average half life", "setting": "[1]", "value": "about 8 days"},
      {"measurement": "agonist component at peripheral androgen receptors", "setting": "[2]", "value": "little if any agonist component"},
      {"measurement": "elevations of serum testosterone, estradiol and LH", "setting": "[3]", "value": "Significant but mild elevations"},
      {"measurement": "reduction in prostatic acid phosphatase levels", "setting": "[4]", "value": "50 to 60", "unit": "%"},
      {"measurement": "patients reporting gynecomastia and breast tenderness", "setting": "[5]", "value": "Over half the patients"},
      {"measurement": "patients reporting hot flushes", "setting": "[5]", "value": "about 20%"},
      {"measurement": "patients reporting nausea and vomiting, bone pain, confusion, constipation, headache, diarrhea, dyspepsia, fatigue, dizziness or rash", "setting": "[5]", "value": "less than 10%"},
      {"measurement": "glucocorticoid activity", "setting": "glucocorticoid activity", "value": "no progestational or glucocorticoid activity"}
    ]},
    {"smiles": "O=C1CCC(N2C(=O)c3ccccc3C2=O)C(=O)N1", "note": "[D-enantiomer of thalidomide, thalidomide]", "values": [
      {"measurement": "sedative effect", "setting": "[6]", "value": "safe and effective sedative"}
    ]},
    {"smiles": "O=C1CCC(N2C(=O)c3ccccc3C2=O)C(=O)N1", "note": "[L-enantiomer of thalidomide, thalidomide]", "values": [
      {"measurement": "teratogenicity", "setting": "[7]", "value": "potent teratogen"}
    ]},
    {"smiles": "CC(C)NCC(O)COc1cccc2ccccc12", "note": "[L-form of propranolol, propranolol]", "values": [
      {"measurement": "potency relative to the D-enantiomer", "setting": "beta-adrenergic", "value": 100, "unit": "times"}
    ]},
    {"smiles": "C[C@](O)(CS(=O)(=O)c1ccc(F)cc1)C(=O)Nc1ccc(C#N)c(C(F)(F)F)c1", "note": "[R-(-)-casodex, N-[4-cyano-3-(trifluoromethyl)phenyl]-3-[(4-fluorophenyl)sulfonyl]-2-hydroxy-2-methylpropanamide]", "values": [
      {"measurement": "ED50 in inhibiting androgen in rats", "setting": "androgen", "value": 0.5, "unit": "mg/kg"}
    ]},
    {"smiles": "C[C@]1(O)CC[C@H]2[C@@H]3CCC4=CC(=O)CCC4=C3C=C[C@@]21C", "note": "[[^3 H]-R1881, methyltrienolone]", "values": [
      {"measurement": "binding to progesterone receptors", "setting": "progesterone receptors", "value": "approximately 5%"},
      {"measurement": "binding to glucocorticoid receptors", "setting": "glucocorticoid receptors", "value": "approximately 5%"}
    ]}
  ]
}
